Our source for the IC50 and Activity values is ChEMBL document CHEMBL3399963, “Design, synthesis and preliminary biological evaluation of C-8 substituted guanine derivatives as small molecular inhibitors of FGFRs” (Bioorg Med Chem Lett, 2015).

A short description of data set [1]: Cytotoxicity against human HL7702 cells after 72 hrs by MTT assay. As to conditions: L02, 72 h. In general terms: Tetrazolium dyes change colour on reduction, which living cells bring about.
The target of data set [2] is T1, Fibroblast growth factor receptor 4 (Homo sapiens, UniProt P22455). The experiment in a line: Inhibition of FGFR4 (unknown origin).
T1 sequence (P22455 whole entry): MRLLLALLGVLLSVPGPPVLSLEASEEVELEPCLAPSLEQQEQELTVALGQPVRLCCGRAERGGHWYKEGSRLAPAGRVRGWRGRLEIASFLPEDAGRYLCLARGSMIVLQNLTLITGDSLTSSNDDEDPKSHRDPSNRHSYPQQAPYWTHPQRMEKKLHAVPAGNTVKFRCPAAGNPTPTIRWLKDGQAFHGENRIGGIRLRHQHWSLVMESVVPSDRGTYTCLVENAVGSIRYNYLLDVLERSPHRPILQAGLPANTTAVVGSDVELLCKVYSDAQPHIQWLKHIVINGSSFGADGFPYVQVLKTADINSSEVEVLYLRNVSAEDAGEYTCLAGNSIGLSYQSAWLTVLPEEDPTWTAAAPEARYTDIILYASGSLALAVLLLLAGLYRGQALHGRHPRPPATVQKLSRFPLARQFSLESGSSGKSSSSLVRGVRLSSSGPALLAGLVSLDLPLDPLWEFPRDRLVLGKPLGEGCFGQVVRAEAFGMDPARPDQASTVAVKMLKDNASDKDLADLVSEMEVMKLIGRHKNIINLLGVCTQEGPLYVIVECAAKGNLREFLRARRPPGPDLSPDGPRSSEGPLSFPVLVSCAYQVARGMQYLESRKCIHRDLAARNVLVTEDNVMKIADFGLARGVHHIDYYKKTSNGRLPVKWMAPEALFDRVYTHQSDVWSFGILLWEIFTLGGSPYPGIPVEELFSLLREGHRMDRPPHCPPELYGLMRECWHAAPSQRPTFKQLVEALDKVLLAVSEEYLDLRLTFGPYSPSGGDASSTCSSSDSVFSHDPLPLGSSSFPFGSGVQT
Data set [3] is described as follows: Cytotoxicity against human HeLa 229 cells after 72 hrs by MTT assay. As to conditions: HeLa 229, 72 h.
Data set [4] is described as follows: Cytotoxicity against mouse B16F10 cells after 72 hrs by MTT assay. As to conditions: B16-F10, 72 h.
Data set [5] addresses T1, Fibroblast growth factor receptor 4. The experiment in a line: Inhibition of FGFR4 (unknown origin) after 90 mins by TR-FRET assay. On the technique in general: Time-resolved FRET reads energy transfer from a long-lived donor to a nearby acceptor.
Another data set concerns A549. The experiment in a line: Cytotoxicity against human A549 cells after 72 hrs by MTT assay. The note with it: A549, 72 h.
Data set [6] deals with Fibroblast growth factor receptor 2 (Homo sapiens, UniProt P21802). In words: Inhibition of FGFR2 (unknown origin) after 90 mins by TR-FRET assay.
Sequence of Fibroblast growth factor receptor 2 (P21802 whole entry): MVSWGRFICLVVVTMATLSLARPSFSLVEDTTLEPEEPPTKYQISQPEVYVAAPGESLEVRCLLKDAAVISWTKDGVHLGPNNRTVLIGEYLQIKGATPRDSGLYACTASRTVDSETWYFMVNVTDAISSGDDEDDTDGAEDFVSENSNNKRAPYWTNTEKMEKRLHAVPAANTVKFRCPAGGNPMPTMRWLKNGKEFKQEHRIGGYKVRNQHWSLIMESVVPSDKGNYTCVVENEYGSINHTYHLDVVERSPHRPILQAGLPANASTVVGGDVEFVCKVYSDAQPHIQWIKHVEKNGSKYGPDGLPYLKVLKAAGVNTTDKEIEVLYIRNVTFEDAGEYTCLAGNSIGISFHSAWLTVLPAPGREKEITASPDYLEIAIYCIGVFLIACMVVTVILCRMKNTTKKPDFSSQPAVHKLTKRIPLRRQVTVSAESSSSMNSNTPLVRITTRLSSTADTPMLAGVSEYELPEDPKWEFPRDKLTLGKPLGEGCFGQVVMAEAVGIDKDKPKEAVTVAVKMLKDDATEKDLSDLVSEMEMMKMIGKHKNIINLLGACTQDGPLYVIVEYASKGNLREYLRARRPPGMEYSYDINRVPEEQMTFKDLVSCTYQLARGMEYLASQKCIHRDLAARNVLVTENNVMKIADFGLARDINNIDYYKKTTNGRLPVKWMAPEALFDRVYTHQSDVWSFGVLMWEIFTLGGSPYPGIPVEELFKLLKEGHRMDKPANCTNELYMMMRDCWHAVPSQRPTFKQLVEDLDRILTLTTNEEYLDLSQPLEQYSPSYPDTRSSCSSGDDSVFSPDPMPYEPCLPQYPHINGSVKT
The target of data set [7] is Fibroblast growth factor receptor 3 (Homo sapiens, UniProt P22607). The experiment in a line: Inhibition of FGFR3 (unknown origin) after 90 mins by TR-FRET assay.
Sequence of Fibroblast growth factor receptor 3 (P22607 whole entry): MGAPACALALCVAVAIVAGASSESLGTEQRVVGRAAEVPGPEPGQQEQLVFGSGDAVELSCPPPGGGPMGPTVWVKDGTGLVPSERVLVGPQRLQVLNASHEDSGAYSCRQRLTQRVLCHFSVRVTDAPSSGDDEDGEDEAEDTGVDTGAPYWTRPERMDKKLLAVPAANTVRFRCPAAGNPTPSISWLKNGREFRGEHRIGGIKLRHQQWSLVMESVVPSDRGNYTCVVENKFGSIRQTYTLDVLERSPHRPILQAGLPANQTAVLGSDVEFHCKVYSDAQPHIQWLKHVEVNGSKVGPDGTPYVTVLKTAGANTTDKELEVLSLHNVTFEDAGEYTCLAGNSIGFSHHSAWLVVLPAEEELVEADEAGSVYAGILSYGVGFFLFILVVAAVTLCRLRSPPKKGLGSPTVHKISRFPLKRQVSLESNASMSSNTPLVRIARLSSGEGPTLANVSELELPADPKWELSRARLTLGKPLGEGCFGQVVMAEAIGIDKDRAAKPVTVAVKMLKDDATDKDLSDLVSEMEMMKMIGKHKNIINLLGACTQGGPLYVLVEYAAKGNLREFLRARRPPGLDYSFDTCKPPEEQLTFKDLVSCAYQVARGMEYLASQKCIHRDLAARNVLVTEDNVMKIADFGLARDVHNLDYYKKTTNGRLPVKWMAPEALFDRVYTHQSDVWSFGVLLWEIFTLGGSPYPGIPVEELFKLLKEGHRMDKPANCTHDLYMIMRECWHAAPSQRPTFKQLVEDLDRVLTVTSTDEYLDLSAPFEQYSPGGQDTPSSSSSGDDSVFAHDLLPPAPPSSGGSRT
Data set [8] addresses Fibroblast growth factor receptor 1 (Homo sapiens, UniProt P11362).
Description: Inhibition of FGFR1 (unknown origin) after 90 mins by TR-FRET assay
A short description of data set [9]: Cytotoxicity against human HL7702 cells assessed as cell survival at 2 to 10 uM after 72 hrs by MTT assay. As to conditions: l02, 72 h. The data set is classed as cell-based.

Sequence of Fibroblast growth factor receptor 1 (P11362 whole entry): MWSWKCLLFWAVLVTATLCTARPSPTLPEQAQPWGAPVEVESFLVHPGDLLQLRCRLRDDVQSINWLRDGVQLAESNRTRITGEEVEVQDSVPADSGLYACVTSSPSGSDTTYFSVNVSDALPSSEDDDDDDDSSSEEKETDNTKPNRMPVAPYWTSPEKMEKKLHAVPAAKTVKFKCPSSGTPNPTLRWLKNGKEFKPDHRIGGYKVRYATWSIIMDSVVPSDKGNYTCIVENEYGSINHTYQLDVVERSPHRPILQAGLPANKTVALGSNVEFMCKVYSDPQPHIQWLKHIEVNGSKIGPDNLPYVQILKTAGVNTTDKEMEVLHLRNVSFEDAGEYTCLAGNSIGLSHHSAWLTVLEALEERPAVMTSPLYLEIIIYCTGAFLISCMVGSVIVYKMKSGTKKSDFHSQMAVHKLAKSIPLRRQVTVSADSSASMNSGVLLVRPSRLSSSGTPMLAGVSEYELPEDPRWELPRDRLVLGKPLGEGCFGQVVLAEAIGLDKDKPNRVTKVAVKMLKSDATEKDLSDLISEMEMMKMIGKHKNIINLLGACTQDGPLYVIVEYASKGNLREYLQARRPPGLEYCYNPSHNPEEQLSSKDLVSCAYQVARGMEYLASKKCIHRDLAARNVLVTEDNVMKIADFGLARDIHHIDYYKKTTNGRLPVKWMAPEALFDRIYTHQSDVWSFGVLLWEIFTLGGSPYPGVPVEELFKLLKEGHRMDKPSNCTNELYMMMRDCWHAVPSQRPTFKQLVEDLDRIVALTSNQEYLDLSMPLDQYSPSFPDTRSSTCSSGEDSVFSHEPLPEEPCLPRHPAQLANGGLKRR

As usually defined, the IC50 is the concentration that gives 50% inhibition. A lower IC50 goes with higher potency. Consider `CN1CCN(c2ccc(-c3nc4c(N5CCN(CC(=O)Nc6nccs6)CC5)c(Cl)cnc4[nH]3)cc2)CC1`, for which the IC50 in data set [1] worked out at 27.6 µM; in [2], 0.02 µM; in data set [3], 4.37 µM; in [4] it was 1.61 µM; in data set [5], 0.13 µM; with A549 it was 2.59 µM.
With `CC(C)(C)NC(=O)Nc1nc2nc(N)ncc2cc1-c1c(Cl)cccc1Cl`, the IC50 in data set [1] came out at 28.4 µM; in data set [6] it was 0.13 µM; in data set [7], 0.29 µM; in [3], 3.87 µM; in data set [4], 2.62 µM; in [5] it was 0.56 µM. Further, the IC50 stood at 4.34 µM in the data set on A549 and 0.11 µM in data set [8].
For the compound `COc1ccccc1-c1nc2c(O)nc(N)nc2[nH]1`, the half-inhibitory concentration (IC50) in [7] and in [5] was more than 20 µM throughout.
For the compound `Cc1ccc(-c2nc3c(O)nc(N)nc3[nH]2)c(C)c1`, the IC50 in [7] and in data set [5] was more than 20 µM in each case.
Consider `COc1cc(CCc2cc(NC(=O)c3ccc(N4C[C@@H](C)N[C@@H](C)C4)cc3)n[nH]2)cc(OC)c1` [FEXAGRATINIB], for which the IC50 was determined as 18.2 µM in data set [1], 0.14 µM in [3], 0.051 µM in data set [4] and 0.062 µM in the data set with A549. For the same compound, the Activity result in data set [9] is recorded as “Non-toxic”.
As for `CC(=O)Nc1nc(O)c2nc(-c3ccccc3)[nH]c2n1`, the IC50 in data set [7] and in data set [5] was more than 20 µM in each case.
For the compound `Nc1nc(O)c2nc(-c3c[nH]c4ccccc34)[nH]c2n1`, the IC50 in data set [1] is 47 µM; in data set [7], more than 20 µM; in [3], 15.4 µM; in data set [4] it was 10.3 µM; in [5], more than 20 µM; in the data set with A549, 10.4 µM.
In turn, `CC(=O)Nc1nc(O)c2nc(-c3ccc(C)cc3C)[nH]c2n1` had an IC50 in data set [5] of more than 20 µM.
With `COc1ccccc1-c1nc2c(O)nc(NC(C)=O)nc2[nH]1`, the IC50 in data set [7] and in data set [5] was more than 20 µM in each case.
Take `CC(=O)Nc1nc(O)c2nc(-c3c[nH]c4ccccc34)[nH]c2n1`: the IC50 in data set [1] was 47.7 µM; in [3] it was 10.8 µM; in data set [4], 8.96 µM; in [5], more than 20 µM; with A549, 9.39 µM.
In the case of `Nc1nc(O)c2nc(-c3ccccc3)[nH]c2n1`, the IC50 in data set [7] and in data set [5] was more than 20 µM in each case.
In the case of `COc1cccc(-c2nc3c(O)nc(NC(C)=O)nc3[nH]2)c1OC`, the half-maximal inhibitory concentration (IC50) in [1] was 50 µM; in [7], more than 20 µM; in data set [3], 10.5 µM; in data set [4] it was 10.8 µM; in data set [5] it was more than 20 µM; with A549 it was 11.9 µM.
Regarding `CC(=O)Nc1nc(O)c2nc(-c3c[nH]c4cccc(Br)c34)[nH]c2n1`, the IC50 in data set [1] was 46.6 µM; in data set [3] it was 9.72 µM; in [4], 6.59 µM; in data set [5] it was more than 20 µM; with A549 it was 8.28 µM. Besides, in [9], the Activity result is recorded as “Non-toxic”.
